In article PMC4434044, “Influence of terpenoids and acarbose on glycosyltransferases produced by strain Leuconostoc mesenteroides URE 13” (Biotechnology, Biotechnological Equipment, 2014):

Legend:
[1] = target: T1, dextransucrase from Leuconostoc mesenteroides URE 13; assay: fructose/glucose release from sucrose, coupled hexokinase assay; Lineweaver-Burk; format: biochemical; settings: 1-200 mmol sucrose, 20 mmol/L sodium acetate pH 5.2, 30 °C, inhibition mode not stated
T1 construct: native extracellular enzyme, 180 kDa, from sucrose-grown culture; PEG 1500 precipitation and Sepharose CL-6B size-exclusion

[2] = tested on: T1, dextransucrase from Leuconostoc mesenteroides URE 13; assay: fructose/glucose release from sucrose, coupled hexokinase assay; format: biochemical; settings: 20 mmol/L sodium acetate pH 5.2-5.3, 30 °C; substrate inhibition above 200 mmol
[3] = terpenoid dissolved in DMSO (20% final)

Ki [1, 3]	SMILES	further results
	C[C@H]1O[C@H](O[C@H]2[C@H](O)[C@@H](O)[C@@H](O[C@H]3[C@H](O)[C@@H](O)C(O)O[C@@H]3CO)O[C@@H]2CO)[C@H](O)[C@@H](O)[C@@H]1N[C@H]1C=C(CO)[C@@H](O)[C@H](O)[C@H]1O (stereo partly shown) [acarbose]	Ki [1]: 0.29 mmol
0.28 mmol	CC(=O)OC1C=CC2C(=O)OCC23CCC2C(=O)OC(c4ccoc4)C(OC(C)=O)C2(C)C13 (stereo not shown) [splendidin]	
	OC[C@H]1O[C@@](CO)(O[C@H]2O[C@H](CO)[C@@H](O)[C@H](O)[C@H]2O)[C@@H](O)[C@@H]1O [sucrose]	Km [2]: 18.0 mmol
0.37 mmol	C[C@H]1[C@H](C)CC[C@]2(C(=O)O)CC[C@]3(C)C(=CC[C@@H]4[C@@]5(C)CC[C@H](O)C(C)(C)[C@@H]5CC[C@]43C)[C@H]12 [ursolic acid]	
